Among the test systems are A498; A549; BT-549; CAKI-1; HL-60; HT-29; Hs-578T; MDA-MB-231; MDA-MB-435; Malme-3M; SF-295; SK-MEL-28; SK-MEL-5; SK-OV-3; SN12C; SNB-75; U-251; UACC-257; DU-145.
Common to all, as to assay: NCI anticancer screen, dose series, 48 h

Each structure is given as a SMILES string.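 Compound exposure: 48 hours, 5 concentrations, 96-well plates. The concentration for 50% growth inhibition is given as GI50.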 The source made the active and inactive calls. Cut-off read from the data, not from the text of the source: active = GI50 up to about 1.1 µM and inactive = higher.

Experimental findings from ChEMBL document CHEMBL1201862, “PubChem BioAssay data set” (2004) are described below.

On to `Cc1ccc(NC(=O)c2cc(S(=O)(=O)Nc3n[nH]c(=O)[nH]3)c(SSc3cc(Cl)c(C(=O)Nc4ccc(C)cc4)cc3S(=O)(=O)Nc3n[nH]c(=O)[nH]3)cc2Cl)cc1`, for which the GI50 in the assay with A498, in the assay on A549, in the assay on BT-549, in the assay on CAKI-1, in the assay with HL-60 and in the assay with HT-29 was > 100 µM (inactive) each time. The GI50 in the assay on Hs-578T, in the assay on MDA-MB-231, with MDA-MB-435, in the assay with Malme-3M, in the assay with SF-295 and with SK-MEL-28 was > 100 µM (inactive) throughout. Further, the GI50 with SK-MEL-5, in the assay with SK-OV-3, with SN12C, in the assay with SNB-75, with U-251 and with UACC-257 was > 100 µM (inactive) each time.
In the case of `O=C(O)C1(C(=O)O)CC1(C(=O)O)C(=O)O`, the GI50 in the assay on A549, in the assay with BT-549, with CAKI-1, with DU-145, in the assay on HL-60 and with HT-29 was > 100 µM (inactive) each time. Also, the GI50 with Hs-578T, in the assay with MDA-MB-231, in the assay with Malme-3M, in the assay with SF-295, with SK-MEL-28 and in the assay on SK-MEL-5 was > 100 µM (inactive) throughout. Further, the GI50 with SK-OV-3, with SN12C, with SNB-75, with U-251 and in the assay on UACC-257 was > 100 µM (inactive) throughout.
As for `CC(=O)C1=CC=C/C1=N\Nc1ccccc1`, the GI50 is 15.1 µM (inactive) in the assay with A549; 11 µM (inactive) with BT-549; 3.91 µM (inactive) in the assay with CAKI-1; 14.9 µM (inactive) in the assay on DU-145; 0.647 µM (active) in the assay on HL-60; 3.83 µM (inactive) with HT-29. For the same compound, the GI50 is 4.48 µM (inactive) with Hs-578T; 10 µM (inactive) in the assay on MDA-MB-231; 13.1 µM (inactive) with MDA-MB-435; 14.6 µM (inactive) with Malme-3M; 11.8 µM (inactive) in the assay on SF-295; 14 µM (inactive) in the assay on SK-MEL-28. For the same compound, the GI50 is 15.6 µM (inactive) in the assay with SK-MEL-5; 16.6 µM (inactive) in the assay with SK-OV-3; 5.81 µM (inactive) with SN12C; 9.33 µM (inactive) in the assay with SNB-75; 2.97 µM (inactive) in the assay on U-251; 15.5 µM (inactive) in the assay with UACC-257.
With `COc1ccc2c(c1O)[C@@]13C=C(O)C(=O)C=C1[C@@H](C2)N(C)CC3`, the GI50 in the assay with A549 was > 100 µM (inactive); in the assay with BT-549, > 100 µM (inactive); in the assay with CAKI-1 it was 88.5 µM (inactive); in the assay on DU-145, 56.9 µM (inactive); in the assay with HL-60, 46.1 µM (inactive); with HT-29 it was 31.6 µM (inactive). In addition, the GI50 in the assay on Hs-578T was 59.3 µM (inactive); in the assay with MDA-MB-231 it was > 100 µM (inactive); in the assay on MDA-MB-435, 40.6 µM (inactive); in the assay on Malme-3M it was 72.6 µM (inactive); in the assay on SF-295, > 100 µM (inactive); in the assay with SK-MEL-28, 87.7 µM (inactive). In addition, the GI50 in the assay with SK-MEL-5 is 60.3 µM (inactive); in the assay on SK-OV-3 it was > 100 µM (inactive); with SN12C it was 50 µM (inactive); with SNB-75, 54 µM (inactive); in the assay on U-251 it was 86.1 µM (inactive); in the assay with UACC-257 it was 43 µM (inactive).
In the case of `CSC1=C(C#N)C(=O)N(c2ccc(C)cc2)C(=S)C1C#N` (stereo not given), the GI50 with A498 was > 100 µM (inactive); in the assay on A549 it was > 100 µM (inactive); in the assay on BT-549, > 100 µM (inactive); with CAKI-1, > 100 µM (inactive); with HL-60, 63.8 µM (inactive); in the assay with HT-29, > 100 µM (inactive). Moreover, the GI50 in the assay with Hs-578T, in the assay with MDA-MB-231, in the assay on MDA-MB-435, in the assay with Malme-3M, with SF-295 and in the assay with SK-MEL-28 was > 100 µM (inactive) in each case. In addition, the GI50 with SK-MEL-5 was > 100 µM (inactive); in the assay on SK-OV-3, > 100 µM (inactive); in the assay with SN12C it was > 100 µM (inactive); with SNB-75 it was 77.1 µM (inactive); with U-251 it was > 100 µM (inactive); with UACC-257, > 100 µM (inactive).
For `Brc1ccc(C2=NCSC(c3ccc(Br)cc3)=N2)cc1`, the GI50 was 32.3 µM (inactive) in the assay with A549; 52.8 µM (inactive) in the assay on BT-549; 7.98 µM (inactive) in the assay with CAKI-1; 11 µM (inactive) in the assay on HL-60; 27.4 µM (inactive) with HT-29; 44.1 µM (inactive) with Hs-578T. Moreover, the GI50 in the assay with MDA-MB-231 is 68.9 µM (inactive); in the assay on MDA-MB-435, 28.8 µM (inactive); with Malme-3M, 35.2 µM (inactive); in the assay on SF-295, 26.9 µM (inactive); with SK-MEL-28 it was 46.5 µM (inactive); with SK-MEL-5, 25.2 µM (inactive). Besides, the GI50 with SK-OV-3 was 43.1 µM (inactive); with SN12C, 29.6 µM (inactive); in the assay with SNB-75, 24.3 µM (inactive); with U-251 it was 16.7 µM (inactive); with UACC-257, 19.1 µM (inactive).
`O=c1oc2ccc(Cl)cc2cc1-c1cn2ccccc2n1`: the GI50 was 14.7 µM (inactive) in the assay with A549; 34.5 µM (inactive) in the assay with BT-549; 15.2 µM (inactive) in the assay with CAKI-1; > 61.9 µM (inactive) with DU-145; 17.7 µM (inactive) in the assay with HT-29; 7.83 µM (inactive) in the assay on Hs-578T. Besides, the GI50 in the assay on MDA-MB-231 is 8.97 µM (inactive); in the assay with MDA-MB-435 it was > 100 µM (inactive); with Malme-3M, 3.46 µM (inactive); in the assay with SF-295, 8.38 µM (inactive); with SK-MEL-28, 96.8 µM (inactive); in the assay on SK-MEL-5 it was > 100 µM (inactive). For the same compound, the GI50 is 2.14 µM (inactive) with SK-OV-3; 7.76 µM (inactive) with SN12C; 15.3 µM (inactive) in the assay with SNB-75; 3.93 µM (inactive) in the assay with U-251; > 94.4 µM (inactive) in the assay with UACC-257.
With `CC(C)(C)OC(=O)c1cnc(Cl)cn1`, the GI50 in the assay with A549 is 69.7 µM (inactive); in the assay with BT-549, 48.5 µM (inactive); in the assay on CAKI-1 it was 3.56 µM (inactive); with DU-145 it was 87.5 µM (inactive); in the assay on HT-29 it was 46.9 µM (inactive); with Hs-578T it was 35.2 µM (inactive). In addition, the GI50 with MDA-MB-231 is 46.1 µM (inactive); in the assay with MDA-MB-435, 56.6 µM (inactive); in the assay with Malme-3M, 51.6 µM (inactive); in the assay with SF-295, > 100 µM (inactive); in the assay with SK-MEL-28 it was 37.8 µM (inactive); in the assay with SK-MEL-5, 47.3 µM (inactive). Besides, the GI50 was > 100 µM (inactive) in the assay on SK-OV-3; 31.8 µM (inactive) in the assay on SN12C; > 100 µM (inactive) in the assay with SNB-75; 33.8 µM (inactive) in the assay on U-251; 30.4 µM (inactive) in the assay with UACC-257.
